The target in the test is N. europaea cyt P460 (Nitrosomonas europaea, UniProt Q50927). Put plainly: biochemical.
Chain of N. europaea cyt P460 (Q50927 27-198): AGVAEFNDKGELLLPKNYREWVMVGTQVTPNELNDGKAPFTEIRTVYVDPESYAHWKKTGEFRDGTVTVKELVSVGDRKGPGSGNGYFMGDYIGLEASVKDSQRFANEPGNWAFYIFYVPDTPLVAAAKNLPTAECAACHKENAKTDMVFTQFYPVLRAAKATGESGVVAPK

The Kd is the concentration at which binding is half-saturated. In turn, `NO` [hydroxylamine] had a Kd of 9 ± 1 mM.

Values taken from article PMC6457333 (Chemical Science, 2019).
